Reference: US12036200B2, “Bismuth-thiol compositions and methods for treating wounds” (Microbion Corporation, priority 2018, dated 2024)
Entries after “also recorded” stand apart in the source; their conditions may differ.

Legend:
[1] = system: Staphylococcus aureus (S. aureus); assay: Staphylococcus aureus mouse model: efficacy of BisEDT on spleen and wound titer (Example 4); assay type: in vivo
Description: Establishment of Mouse Model: A luminescent strain of Staphylococcus aureus (S. aureus) was administered intravenously to adult, female, Swiss Webster mice and 48 hours was allowed for a biofilm to form. Mice were treated daily intravenously with 100 μL of serial dilutions of BisEDT. In this example, BisEDT was used as a suspension (w:v) (e.g. 150, 375, or 750 μg/mL) of drug particles in diluent, which is composed of 3% methylcellulose/0.5% polysorbate 80/10 mM sodium chloride/10 mM sodium phosphate, pH 7.4.
Imaging Studies: Mice were imaged using Silhouette to determine wound size and volume, and In Vivo Imaging Systems (IVIS) Lumina X5 to quantitate bioluminescence.
Terminal colony forming units (CFU) were determined by plating homogenized tissue from the wound bed and in the spleen. Mice were euthanized and wound tissue and spleens were harvested. Tissue samples were weighed and placed into microtubes containing sterile phosphate buffer and homogenized. The homogenate was then serially diluted and plated to determine CFU/g tissue.
An initial study evaluated the effect of BisEDT suspension on CFUs in the spleen and wound bed. The study occurred over 11 days with 9 days of treatment. The BisEDT suspension was administered to 30 (n=5 mice/group) mice at concentrations of 2500, 250, 25, 2.5, 0.25, 0.25, 0.025 μg/mL. A comparator control was vehicle, or diluent, and 50% DMSO in PBS.
A subsequent study evaluated the effect of higher concentrations of BisEDT suspension on CFUs in the spleen and wound bed. The study occurred over 12 days with 10 days of treatment. BisEDT suspension was administered to 20 (n=5 mice/group) at concentrations of 10, 5, 2.5, and 0.75 mg/mL. A negative control was mice that were untreated, and a positive control was mice that were treated with Prontosan. […] Complete inhibition was observed compared to the untreated control (FIG. 3). Further, treatment with 5 mg/mL BisEDT reduced CFUs by 1.5-2 logs, greater than the positive prontosan control.

[2] = system: Patients with Moderate to Severe Diabetic Foot Infection; assay: Phase 1b/2a study of topical BisEDT: wound surface area by 3D digital photographs (Example 6); assay type: in vivo, human; conditions: end of treatment, test of cure and end of study
Description: Adjunctive local administration of BisEDT was tested for its efficacy in resolving both infection and critical colonization, thereby removing these barriers to wound repair and closure. This represents a fundamental, clinically meaningful benefit.
Topical BisEDT suspension and placebo were used in combination with SOC systemic antibiotics (such as levofloxacin) for a duration of 2-3 weeks. […] BisEDT, when used in conjunction with systemic antibiotics, for a duration of […] (3× per week) may be beneficial in resolving both infection and critical colonization, therefore enabling wound repair and closure, a fundamental, clinically meaningful benefit.

[3] = system: subjects with a moderate to severe DFI; assay: Phase 1b/2a DFI study (Example 7): clinical response; assay type: in vivo, human; conditions: MITT Population, BisEDT dose groups vs placebo
Description: Methodology: This was a randomized, double-blind, placebo-controlled, multicenter study that was planned to be conducted in 2 parts. In Part 1, subjects were enrolled into escalating dose cohorts (BisEDT at concentrations of 150, 375, and 750 μg/mL resulting in doses of 3, 7.5, and 15 μg/cm^2) (N=16 per cohort) at a ratio of 3:1 (BisEDT to placebo).
In Part 1, subjects received either topical application of BisEDT or topical application of placebo, applied directly to the infected ulcer, 3 times per week, for a minimum of 2 weeks (ie, 6 doses) and up to a maximum of 3 weeks (ie, 9 doses). […] The determination to stop topical BisEDT therapy after a minimum of 2 weeks (ie, 6 doses) was at the discretion of the Principal Investigator and based on the resolution of clinical findings of infection.
Efficacy: The following clinical and microbiological efficacy outcomes were assessed: • Proportion of subjects with a clinical cure of infection 2 weeks following the end of dosing, TOC with BisEDT or placebo. […]
At the TOC, EOT, and EOS visits, the cure rate (cured vs not cured) was analyzed using an Exact Logistic Regression model with covariates for treatment dose group, the 8-item baseline wound score, and the interaction of treatment group and baseline wound score. […]

[4] = system: subjects with a moderate to severe DFI; assay: Phase 1b/2a DFI study (Example 7): microbiological response, colonization, reinfection, relapse; assay type: in vivo, human
Description: Efficacy: The following clinical and microbiological efficacy outcomes were assessed: • Proportion of subjects with a clinical cure of infection 2 weeks following the end of dosing, TOC with BisEDT or placebo. Subjects were classified into one of the following groups: cured (resolution of all clinical signs and symptoms of infection or sufficient improvement such that additional antimicrobial therapy was not required), failure (insufficient resolution of at least one of the initial signs and symptoms of infection, or the need for any additional or alternative antimicrobial therapy, or the need for surgical treatment of the infection), or indeterminate (assessment not possible for any reason). • Proportion of subjects with a clinical cure at EOT with BisEDT or placebo. • Proportion of subjects with a confirmed or presumed microbiological cure 2 weeks following the end of dosing, TOC. Subjects were classified into one of the following groups: confirmed eradication (all of the original pathogens were absent), presumed eradication (there was no available material for culture but the infection clinically responded to treatment), persistence (presence of a pathogen isolated at baseline), or indeterminate (inability to determine microbiological response). • Proportion of subjects with a confirmed or presumed microbiological cure at the EOT and EOS. At the EOS visit, additional classification groups included: colonization (isolation of a new organism that was not present on the initial culture but the wound was not clinically infected); reinfection (isolation of a new organism that was not present on the initial culture and the wound was clinically infected) or relapse (the same organism that was present on the initial culture was again isolated, after an intervening confirmed [sterile culture] or presumed [no material to culture] microbiological response and the wound was clinically infected). • Change from baseline in the Biofilm Score at EOT and TOC. • Proportion of subjects that underwent lower-extremity amputation involving the infected foot. • Proportion of subjects needing any infection-related surgery (ie, lower-extremity amputation, incision and drainage of a new abscess, or soft tissue or bone resection) after treatment had started. • Change from baseline in the 8-item DFI wound score at EOT, TOC, and EOS. • Percent reduction in ulcer size at EOS and each study visit.
Microbiological Response: The distribution of microbiological response outcome categories (confirmed eradication, presumed eradication, persistence, and indeterminate) are descriptively summarized by treatment group using counts and percentages at the TOC, EOT, and EOS visits. The eradication rate (confirmed+presumed vs the rest) was analyzed using the same methodology as clinical response. Analyses are presented for the ME Population.
Colonization, Reinfection, and Relapse: At the EOS visit, the number and percentage of subjects with a colonization, reinfection, or relapse are tabulated by treatment group for the ME Population.
Microbiologic assessment. Cultures were collected at baseline and as needed for the treatment of the subject. Tissue samples were shipped to a central laboratory where the presence of viable microorganisms was determined by standard microbiological culture methods and included speciation. […] The susceptibility of bacterial isolates to BisEDT was also determined, but was not reported to investigators.

[5] = system: subjects with a moderate to severe DFI; assay: Phase 1b/2a DFI study (Example 7): biofilm score; assay type: in vivo, human; conditions: ME Population, BisEDT dose groups vs placebo
Source text: Biofilm Response: The distribution of absolute scores at the EOT and TOC visits are descriptively summarized using counts and percentages by treatment group. Treatments were compared using the Cochran Mantel Haenszel mean score test statistic, and the p-value is presented. Additionally, shift tables showing individual subject changes from baseline to EOT and TOC visits are presented. Analyses are presented for the ME Population.
Biofilm response: The following categories were used: score 0, no bacteria observed; 1, single individual cells; 2, small micro-colonies (˜10 cells); 3, large micro-colonies (˜100 cells); 4, continuous film; 5, thick continuous film. Subjects with no debridement material as a result of their DFI healing were given a score of 0. The distribution of absolute scores at the EOT and TOC visits are descriptively summarized using counts and percentages by treatment group. Treatments were compared using the Cochran Mantel Haenszel mean score test statistic, and the p-value is presented. Additionally, a shift table showing individual subject changes from baseline to EOT and TOC visits is presented. Analyses are presented for the ME Population.

[6] = Phase 1b/2a DFI study (Example 7): pharmacokinetic evaluation, blood concentration of bismuth; assay type: in vivo, human; conditions: topical BisEDT 3, 7.5, 15 μg/cm^2; whole blood concentrations
Description: The primary objective of Part 1 of this study and the planned primary objective of Part 2 of this study was to evaluate the safety and tolerability of topically administered BisEDT composition as adjunct to standard of care (including systemic antibiotic therapy) in subjects with a moderate to severe DFI. […]
The mean bismuth concentration by day for the PK Concentration Population included: 8 subjects on Day 1 predose (only 2 subjects with detectable levels of 0.582 and 0.548 ng/mL, hypothesized to be from undisclosed use of bismuth containing medications or from dressings containing bismuth, such as Xeroform®, as blood was collected before treatment with BisEDT); 8 subjects on Day 3 predose (only 1 subject with a detectable level of 0.525 ng/mL); 8 subjects on Day 5 predose (only 1 subject with a detectable level of 0.701 ng/mL); and 8 subjects on Day 8 predose (only 1 subject with a detectable level of 0.513 ng/mL). […] Bismuth levels were not measured in samples that were erroneously processed to plasma by the 1 site that enrolled the majority of the subjects in the PK study, as bismuth levels are expected to be 15 to 20 times lower in plasma samples compared to whole blood samples and would be well below the lower limit of quantitation for the assay method; no PK parameters were calculated.

[7] = Phase 1b/2a DFI study (Example 7): safety and tolerability; assay type: in vivo, human
Source text: The primary objective of Part 1 of this study and the planned primary objective of Part 2 of this study was to evaluate the safety and tolerability of topically administered BisEDT composition as adjunct to standard of care (including systemic antibiotic therapy) in subjects with a moderate to severe DFI. The secondary objectives of Part 1 of this study and the planned secondary objectives of Part 2 of this study were: To evaluate the effect of adjunctive BisEDT composition on resolution of infection; To evaluate the effect of adjunctive BisEDT composition on eradication of pathogens; To evaluate the effect of BisEDT composition on eradication of biofilms; To evaluate the effect of BisEDT composition on wound healing; To evaluate the effect of BisEDT composition for the prevention of lower extremity amputations; To evaluate the effect of BisEDT composition for the prevention of infection related surgery; To evaluate the effect of BisEDT composition on duration of systemic antibiotic use; To evaluate the effect of BisEDT composition on length of hospital stay; To evaluate the systemic absorption and pharmacokinetics of topically administered BisEDT composition.

[8] = Particle size of microparticulate BisEDT, Nanosizer/Zetasizer Nano-S (Example 1); assay type: physicochemical; conditions: resuspended in 2% Pluronic F-68, sonicated
Description: The dried particulate matter was characterized to assess the particle size properties. Briefly, microparticles were resuspended in 2% Pluronic® F-68 (BASF, Mt. Olive, NJ) and the suspension was sonicated for 10 minutes in a water bath sonicator at standard setting prior to analysis using a Nanosizer/Zetasizer Nano-S particle analyzer (model ZEN1600 (without zeta-potential measuring capacity), Malvern Instruments, Worcestershire, UK) according to the manufacturer's recommendations.

[9] = EOS visit, ME Population, BisEDT dose groups vs placebo
[10] = topical doses of 3, 7.5, and 15 μg/cm^2

Structure (SMILES): C1C[S][Bi]([S]CC[S][Bi]2[S]CC[S]2)[S]1 [BisEDT, bismuth-1,2-ethanedithiol]
- mice exhibiting no infection (spleen) ([1]; 2.5 mg/mL BisEDT (FIG. 4)): three
- reduction of wound titer compared to diluent ([1]; 2500 μg/mL BisEDT suspension, mice, 9 days of treatment (FIG. 1)): approximately five
- reduction of CFU compared to untreated control ([1]; 10 mg/mL BisEDT, mice, 10 days of treatment, complete inhibition (FIG. 3)): more than eight
- proportion of subjects with >50% reduction in wound surface area from baseline, compared to placebo [2]: larger proportion
- clinical response, comparison of treatment groups ([3]; EOT visit): No difference between treatment groups was observed
- clinical response, comparison of treatment groups ([3]; TOC visit): No difference between treatment groups was observed
- colonization, reinfection, and relapse, comparison of treatment groups [4, 9]: No difference between treatment groups was observed
- microbiological response, comparison of treatment groups [4, 9]: No difference between treatment groups was observed
- microbiological response, comparison of treatment groups ([4]; EOT visit, ME Population, BisEDT dose groups vs placebo): No difference between treatment groups was observed
- microbiological response, comparison of treatment groups ([4]; TOC visit, ME Population, BisEDT dose groups vs placebo): No difference between treatment groups was observed
- reduction of reinfection or relapse with BisEDT compared to placebo ([4]; all dose groups combined 12.5% vs placebo 33.3%, EOS visit): approximately one-third
- biofilm response, comparison of treatment groups ([5]; EOT visit): No difference in biofilm response at the EOT visit between treatment groups was observed
- biofilm response, comparison of treatment groups ([5]; TOC visit): No difference in biofilm response at the TOC visit between treatment groups was observed
- systemic exposure [6]: very little systemic exposure; also recorded: does not appear to exhibit any relevant systemic exposure; also recorded: limited systemic exposure
- TEAEs and SAEs related to study drug [7, 10]: None of the TEAEs and SAEs occurring in the study were considered related to study drug
- safety signals [7, 10]: No safety signals were identified
- safety and tolerability ([7]; topical doses of 3, 7.5, and 15 μg/cm^2, 3 times per week, 2-3 weeks): safe and well tolerated
- peak VMD [8]: about 1.3 microns
